Results from the supplement of paper PMC10307832.

What was measured:
Assay in all cases: relative viability (nuclei count vs DMSO), 5 days (fraction); higher = more cells survive
QS11 + Navitoclax = compound: C1CC2=C(C1)C=C(C=C2)OC3=NC(=C4C(=N3)N(C=N4)CC5=CC=C(C=C5)C6=CC=CC=C6)N[C@@H](CC7=CC=CC=C7)CO [QS11] + CC1(C)CCC(c2ccc(Cl)cc2)=C(CN2CCN(c3ccc(C(=O)NS(=O)(=O)c4ccc(N[C@H](CCN5CCOCC5)CSc5ccccc5)c(S(=O)(=O)C(F)(F)F)c4)cc3)CC2)C1 [Navitoclax] (partner 0.5 µM)
In short: (§1)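 Lung cancer cell lines in 1536-well plates got either a single drug or a fixed anchor-drug dose together with five library-drug doses (not always all listed) in √10 steps, by pin tool, on the day after seeding. Nuclei were counted after 5 days, and relative viability is the treated-to-vehicle ratio of nuclei counts. Values are medians of duplicate plates.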

AZ628 + OSI-027 = compound: CC1=C(C=C(C=C1)NC(=O)C2=CC(=CC=C2)C(C)(C)C#N)NC3=CC4=C(C=C3)N=CN(C4=O)C [AZ628] + COc1cccc2cc(-c3nc([C@H]4CC[C@H](C(=O)O)CC4)n4ncnc(N)c34)[nH]c12 [OSI-027] (partner 0.5 µM)
In short: as §1

[1] = compound: C[As](C)SC[C@H](NC(=O)CC[C@H](N)C(=O)O)C(=O)NCC(=O)O [Darinaparsin] + CC(=O)Nc1cccc(-n2c(=O)n(C3CC3)c(=O)c3c(Nc4ccc(I)cc4F)n(C)c(=O)c(C)c32)c1 [Trametinib] (partner 0.02 µM)
In short: as §1

[2] = compound: C[As](C)SC[C@H](NC(=O)CC[C@H](N)C(=O)O)C(=O)NCC(=O)O [Darinaparsin] + C[C@]1(O)C[C@@H](c2nc(-c3ccc4ccc(-c5ccccc5)nc4c3)c3c(N)nccn32)C1 [Linsitinib] (partner 1 µM)
In short: as §1

Cell Line | relative viability (QS11 + Navitoclax; first compound 0.08 µM) | relative viability (QS11 + Navitoclax; first compound 0.253 µM) | relative viability (QS11 + Navitoclax; first compound 0.8 µM) | relative viability (QS11 + Navitoclax; first compound 2.53 µM) | relative viability (QS11 + Navitoclax; first compound 8 µM) | relative viability (AZ628 + OSI-027; first compound 0.08 µM) | relative viability (AZ628 + OSI-027; first compound 0.253 µM) | relative viability (AZ628 + OSI-027; first compound 0.8 µM) | relative viability (AZ628 + OSI-027; first compound 2.53 µM) | relative viability (AZ628 + OSI-027; first compound 8 µM) | relative viability ([1]; first compound 0.08 µM) | relative viability ([1]; first compound 0.8 µM) | relative viability ([1]; first compound 2.53 µM) | relative viability ([1]; first compound 8 µM) | relative viability ([2]; first compound 0.08 µM) | relative viability ([2]; first compound 0.8 µM) | relative viability ([2]; first compound 8 µM) | relative viability ([2]; first compound 2.53 µM)
COR-L 105 | 0.77 | 0.618 | 0.788 | 0.733 | 0.83 | 0.751 | 0.837 | 0.795 | 0.763 | 0.46 | 0.473 | 0.456 | 0.427 | 0.45 | 0.992 | 0.844 | 0.978 | 
BEN | 0.0566 | 0.0797 | 0.0702 | 0.047 | 0.0634 | 0.318 | 0.278 | 0.32 | 0.281 | 0.267 | 1.18 | 0.998 | 0.991 | 1.12 | 0.947 | 1.02 | 1.11 | 0.764
NCI-H520 |  | 1.06 | 1.23 | 1.22 | 1.14 | 0.262 | 0.21 | 0.206 | 0.203 | 0.232 | 0.883 | 0.718 | 0.669 | 0.697 | 1.02 | 1.08 | 0.985 | 0.863
NCI-H2405 | 0.778 | 0.757 | 0.901 | 0.894 | 0.768 | 0.482 | 0.37 | 0.393 | 0.353 | 0.345 | 0.702 | 0.562 | 0.55 | 0.668 | 1.01 | 0.91 | 0.887 | 0.812
NCI-H2087 | 1.05 | 1.02 | 0.733 | 0.931 | 0.785 | 0.52 | 0.335 | 0.213 | 0.274 | 0.13 | 0.185 | 0.176 | 0.185 | 0.263 | 1.07 | 0.997 | 0.94 | 1.01
NCI-H460 | 1.1 | 1.25 | 0.882 | 1.06 | 0.308 | 0.738 | 0.64 | 0.259 | 0.429 | 0.107 | 0.312 | 0.329 | 0.12 | 0.166 | 0.814 | 1.04 | 1.22 | 0.713
NCI-H441 | 0.452 | 1.04 | 0.673 | 0.723 | 0.529 | 0.801 | 0.558 | 0.634 | 0.588 | 0.492 | 0.507 | 0.471 | 0.429 | 0.295 | 0.755 | 0.506 | 0.47 | 0.497
